According to patent EP0330826A2, “Use of pyridin-2-ethers or pyridin-2-thioethers with a nitrogen-containing cycloaliphatic ring as agents with an antidepressant activity” (ASTA Pharma Aktiengesellschaft, priority 1988, dated 1989):
Like-named read-outs stand apart in the source and are kept apart here.

Assay: Swimming test according to Porsolt (forced swim, motor activity / immobility phases)
Assay type: in vivo
Settings: Ratte; for minimal effective dose: read-out: niedrigste, bereits wirksame Dosis
Excerpt: Die erfindungsgemäßen Verbindungen der Formel I zeigen zum Beispiel im Schwimm-Test nach Porsolt eine gute dosisabhängige antidepressive Wirkung.
Der Schwimm-Text an der Ratte erfolgt in Anlehnung an die Methode von Porsolt (Porsolt, R.D., A. Bertin and M. Ialfre, 1977, Behavioral despair in mice, Arch. Intern. Pharmacodyn. Ther. 229, 327): Hierzu werden Ratten einzeln in einen mit Wasser gefüllten Plastikbehälter gesetzt. Die Höhe des Behälters ist 30 cm, die Länge beträgt 35 cm und die Breite 20 cm. Das Wasser hat eine Temperatur von 25° C und die Tiefe ist 20 cm. Die Schwimmaktivitäts- beziehungsweise die Immobilisationsphasen der Tiere werden mit Hilfe eines motor activity meters über 15 Minuten in einem Abstand von 1 Minute (Impulse/Min.) registriert. Im Normalfall (das heißt ohne Antidepressivum) machen die Tiere nur für kurze Zeit Schwimmbewegungen und lassen sich dann treiben. Die Zunahme der Aktivitäts- beziehungsweise Abnahme der Immobilisationsphasen (die Tiere schwimmen nicht, sondern lassen sich treiben) gilt als Maß für die antidepressive Wirkung einer Substanz. Die antidepressive Wirkung wird als Wirkung in % für eine bestimmte Dosis antidepressive Wirksubstanz angegeben bezogen auf eine Kontrollgruppe, die keine Wirkstubstanz bekommen hat.

**Q.** Which results are given for Clc1cccc(SC2CCNCC2)n1 [Anpirtolin, 6-Chlor-2-piperidyl-(4)-thio-pyridin]?
**A.** antidepressive Wirkung (Wirkung in %) (Dosis 6 mg/kg Körpergewicht, intraperitoneale Applikation, relative to control group without active substance): 50%; minimal effective dose (oral): 20 mg/kg; minimal effective dose (iv, intravenös): 0.5 mg/kg
